# Assay results as given in patent US5488060A, “Substituted thiadiazoles, compositions containing them and their use as antimicrobial and marine antifouling agents” (The Dow Chemical Company, priority 1994, dated 1996).
# Read-outs that look alike come from different tables or passages of the source.
# Legend:
# Assay type in all cases: cell-based
# Bacillus subtilis (Bs) = experiment: Minimum inhibitory concentration (MIC) in nutrient agar, Bacillus subtilis
# Protocol: (§1) The antimicrobial activity of the compounds of the present invention is set forth as the minimum inhibitory concentration (MIC) for the active compounds and is determined for nine (9) bacteria, using nutrient agar, and seven (7) yeast and fungi, using malt yeast agar. This determination is conducted using a one percent solution of the test compound prepared in a mixture of acetone and water.
# (§2) Nutrient agar is prepared at pH 6.8, representing a neutral medium, and at pH 8.2, representing an alkaline medium. The nutrient agars are prepared by adding 23 g of nutrient agar to one-liter of deionized water. In addition, the alkaline medium is prepared by adjusting a 0.04M solution of N-[tris-(hydroxymethyl)methyl]glycine buffered deionized water with concentrated sodium hydroxide to a pH of 8.5.
# (§3) The test tubes containing the agar are cooled in a water bath until the temperature of the agar is 48° C. Then, an appropriate amount of the one percent solution of the test compound is added (except in the controls where no compound is added) to the respective test tubes so that the final concentrations are 500, […], 100, 50, 25, 10, 5, 2.5, 1.0 and zero parts per million of the test compound in the agar, thus having a known concentration of test compound dispersed therein. The contents of the test tubes are then transferred to respective petri plates. After drying for 24 hours, the petri plates containing nutrient agar are inoculated with bacteria and those containing malt yeast agar are inoculated with yeast and fungi.
# (§4) The inoculation with bacteria is accomplished by using the following procedure. Twenty-four hour-cultures of each of the bacteria are prepared by incubating the respective bacteria in tubes containing nutrient broth for 24 hours at 30° C. in a shaker. Dilutions of each of the 24 hour-cultures are made so that nine separate suspensions (one for each of the nine test bacteria) are made, each containing 10^8 colony forming units (CFU) per mL of suspension of a particular bacteria. Aliquots of 0.3 mL of each of the bacterial suspensions are used to fill the individual wells of Steer's Replicator. For each microbial suspension, 0.3 mL was used to fill three wells (i.e., three wells of 0.3 mL each) so that for the nine different bacteria, 27 wells are filled. The Steer's Replicator is then used to inoculate both the neutral and alkaline pH nutrient agar petri plates.
# (§5) The inoculated petri plates are incubated at 30° C. for 48 hours and then read to determine if the test compound which is incorporated into the agar prevented growth of the respective bacteria.
# [1] = test system: Pseudomonas aeruginosa (PRD-10); experiment: Minimum inhibitory concentration (MIC) in nutrient agar, Pseudomonas aeruginosa PRD-10; settings: 48 h
# Protocol: as §1, §2, §3, §4, §5
# Aspergillus niger (An) = experiment: Minimum inhibitory concentration (MIC) in malt yeast agar, Aspergillus niger; settings: pH 5.5; malt yeast agar, 30° C., 72 hours for fungi; read-out: Minimum Inhibitory Concentration, An
# Protocol: as §1
# (§6) Malt yeast agar is prepared at pH 5.5 by adding 3 g yeast extract and 45 g malt agar per liter of deionized water. The specific agar is dispensed in 30 mL aliquots into 25×200 mm test tubes, capped and autoclaved for 15 minutes at 115° C.
# as §3
# (§7) The inoculation with the yeast and fungi is accomplished as follows. Cultures of yeast and fungi are incubated for seven days on malt yeast agar at 30° C. These cultures are used to prepare suspensions by the following procedure. A suspension of each organism is prepared by adding 10 mL of sterile saline and 10 microliters of octylphenoxy polyethoxy ethanol to the agar slant of yeast or fungi. The sterile saline/octylphenoxy potyethoxy ethanol solution is then agitated with a sterile swab to suspend the microorganism grown on the slant. Each resulting suspension is diluted into sterile saline (1 part suspension: 9 parts sterile saline). Aliquots of these dilutions are placed in individual wells of Steer's Replicator and petri plates inoculated as previously described. The petri plates are incubated at 30° C. and read after 48 hours for yeast and 72 hours for fungi.
# [2] = test system: Salmonella choleraesuis (Se); experiment: Minimum inhibitory concentration (MIC) in nutrient agar, Salmonella choleraesuis; settings: Salmonella enterica, 48 h
# Protocol: as §1, §2, §3, §4, §5
# [3] = test system: Penicillium chrysogenum (Pc); experiment: Minimum inhibitory concentration (MIC) in malt yeast agar, Penicillium chrysogenum
# Protocol: as §1, §6, §3, §7
# [4] = test system: Klebsiella pneumoniae (Kp); experiment: Minimum inhibitory concentration (MIC) in nutrient agar, Klebsiella pneumoniae
# Protocol: as §1, §2, §3, §4, §5
# Trichoderma viride (Tv) = experiment: Minimum inhibitory concentration (MIC) in malt yeast agar, Trichoderma viride; settings: 72 h, pH 5.5, read-out: Minimum Inhibitory Concentration, Tv
# Protocol: as §1, §6, §3, §7
# Candida albicans (Ca) = experiment: Minimum inhibitory concentration (MIC) in malt yeast agar, Candida albicans
# Protocol: as §1, §6, §3, §7
# [5] = test system: Staphylococcus aureus (Sa); experiment: Minimum inhibitory concentration (MIC) in nutrient agar, Staphylococcus aureus
# Protocol: as §1, §2, §3, §4, §5
# Fusarium oxysporum (Fo) = experiment: Minimum inhibitory concentration (MIC) in malt yeast agar, Fusarium oxysporum
# Protocol: as §1, §6, §3, §7
# [6] = test system: Aureobasidium pullulan (Ap); experiment: Minimum inhibitory concentration (MIC) in malt yeast agar, Aureobasidium pullulan
# Protocol: as §1, §6, §3, §7
# [7] = test system: Enterobacter aerogenes (Ea); experiment: Minimum inhibitory concentration (MIC) in nutrient agar, Enterobacter aerogenes; settings: Klebsiella aerogenes, 48 h
# Protocol: as §1, §2, §3, §4, §5
# Escherichia coli (Ec) = experiment: Minimum inhibitory concentration (MIC) in nutrient agar, Escherichia coli
# Protocol: as §1, §2, §3, §4, §5
# [8] = test system: Saccharomyces cerevisiae (Sc); experiment: Minimum inhibitory concentration (MIC) in malt yeast agar, Saccharomyces cerevisiae; settings: pH 5.5, malt yeast agar, 30° C., 48 hours for yeast, read-out: Minimum Inhibitory Concentration, SC
# Protocol: as §1, §6, §3, §7
# [9] = test system: Pseudomonas aeruginosa (Pa); experiment: Minimum inhibitory concentration (MIC) in nutrient agar, Pseudomonas aeruginosa; settings: 30° C., 48 hours, read-out: Minimum Inhibitory Concentration, Pa
# Protocol: as §1, §2, §3, §4, §5
# Proteus vulgaris (Pv) = experiment: Minimum inhibitory concentration (MIC) in nutrient agar, Proteus vulgaris; settings: 48 h
# Protocol: as §1, §2, §3, §4, §5
# [10] = 48 h, pH 8.2, read-out: Minimum Inhibitory Concentration, Bs
# [11] = pH 6.8, nutrient agar, 30° C., 48 hours, read-out: Minimum Inhibitory Concentration, Bs
# [12] = pH 6.8, read-out: Minimum Inhibitory Concentration, PRD
# [13] = pH 8.2, read-out: Minimum Inhibitory Concentration, PRD
# [14] = pH 6.8, read-out: Minimum Inhibitory Concentration, SC
# [15] = pH 8.2, read-out: Minimum Inhibitory Concentration, SC
# [16] = 48 h, pH 8.2, read-out: Minimum Inhibitory Concentration, Kp
# [17] = pH 6.8, nutrient agar, 30° C., 48 hours, read-out: Minimum Inhibitory Concentration, Kp
# [18] = 48 h, pH 5.5, read-out: Minimum Inhibitory Concentration, Ca
# [19] = pH 5.5, malt yeast agar, 30° C., read-out: Minimum Inhibitory Concentration, Ap
# [20] = pH 6.8, read-out: Minimum Inhibitory Concentration, Ea
# [21] = pH 8.2, read-out: Minimum Inhibitory Concentration, Ea
# [22] = 48 h, pH 6.8, read-out: Minimum Inhibitory Concentration, Ec
# [23] = 48 h, pH 8.2, read-out: Minimum Inhibitory Concentration, Ec
# [24] = pH 6.8, read-out: Minimum Inhibitory Concentration, Pv
# [25] = pH 8.2, read-out: Minimum Inhibitory Concentration, Pv
# [26] = pH 5.5, malt yeast agar, 30° C., 72 hours for fungi, read-out: Minimum Inhibitory Concentration, PC
# [27] = 48 h, pH 8.2, read-out: Minimum Inhibitory Concentration, Sa
# [28] = pH 6.8, nutrient agar, 30° C., 48 hours, read-out: Minimum Inhibitory Concentration, Sa
# [29] = 72 h, pH 5.5, read-out: Minimum Inhibitory Concentration, Fo
SMILES,MIC (Bacillus subtilis (Bs); [10]),MIC (Bacillus subtilis (Bs); [11]),"MIC [1, 12]","MIC [1, 13]",MIC (Aspergillus niger (An)),"MIC [2, 14]","MIC [2, 15]","MIC [4, 16]","MIC [4, 17]",MIC (Trichoderma viride (Tv)),MIC (Candida albicans (Ca); [18]),"MIC [6, 19]","MIC [7, 20]","MIC [7, 21]",MIC (Escherichia coli (Ec); [22]),MIC [8],"MIC ([9]; pH 6.8, nutrient agar)","MIC ([9]; pH 8.2, nutrient agar)",MIC (Proteus vulgaris (Pv); [24]),MIC (Proteus vulgaris (Pv); [25]),also measured
"CSc1ccc(-c2nsnc2SC#N)cc1 [Example IX, 4-(4-Methylthiophenyl)-3-thiocyanato-1,2,5-thiadiazole]",250 µg/mL,< 10 µg/mL,> 500 µg/mL,500 µg/mL,< 10 µg/mL,> 500 µg/mL,500 µg/mL,500 µg/mL,> 500 µg/mL,< 10 µg/mL,50 µg/mL,< 10 µg/mL,> 500 µg/mL,500 µg/mL,> 500 µg/mL,< 10 µg/mL,> 500 µg/mL,500 µg/mL,> 500 µg/mL,500 µg/mL,"MIC ([3]; 72 h, pH 5.5, read-out: Minimum Inhibitory Concentration, PC): < 10 µg/mL; MIC ([5]; 48 h, pH 6.8, read-out: Minimum Inhibitory Concentration, Sa): 50 µg/mL; MIC ([5]; pH 8.2, nutrient agar, 30° C., 48 hours, read-out: Minimum Inhibitory Concentration, Sa): 250 µg/mL; MIC (Fusarium oxysporum (Fo); pH 5.5, malt yeast agar, 30° C., 72 hours for fungi, read-out: Minimum Inhibitory Concentration, Fo): < 10 µg/mL; MIC (Escherichia coli (Ec); [23]): 500 µg/mL"
"N#CSCSc1nsnc1-c1ccc(Cl)cc1 [Example XVIII, 4-(4-Chlorophenyl)-3-thiocyanatomethylthio-1,2,5-thiadiazole]",500 µg/mL,,500 µg/mL,> 500 µg/mL,9 µg/mL,500 µg/mL,> 500 µg/mL,> 500 µg/mL,500 µg/mL,250 µg/mL,250 µg/mL,9 µg/mL,500 µg/mL,> 500 µg/mL,500 µg/mL,9 µg/mL,500 µg/mL,> 500 µg/mL,500 µg/mL,> 500 µg/mL,"MIC (Bacillus subtilis (Bs); 48 h, pH 6.8, read-out: Minimum Inhibitory Concentration, Bs): 500 µg/mL; MIC [3, 26]: 9 µg/mL; MIC [5, 27]: > 500 µg/mL; MIC [5, 28]: 500 µg/mL; MIC (Fusarium oxysporum (Fo); [29]): 100 µg/mL; MIC (Escherichia coli (Ec); pH 8.2, nutrient agar, 30° C., 48 hours, read-out: Minimum Inhibitory Concentration, Ec): 250 µg/mL"
"CS(=O)(=O)c1ccc(-c2nsnc2SC#N)cc1 [Example XI, 4-(4-Methylsulfonylphenyl)-3-thiocyanato-l,2,5-thiadiazole]",500 µg/mL,25 µg/mL,500 µg/mL,500 µg/mL,500 µg/mL,500 µg/mL,500 µg/mL,500 µg/mL,250 µg/mL,250 µg/mL,,,500 µg/mL,500 µg/mL,500 µg/mL,250 µg/mL,500 µg/mL,500 µg/mL,500 µg/mL,500 µg/mL,"MIC [3, 26]: 500 µg/mL; MIC (Candida albicans (Ca); pH 5.5, malt yeast agar, 30° C., 48 hours for yeast, read-out: Minimum Inhibitory Concentration, Ca): 500 µg/mL; MIC [5, 27]: 500 µg/mL; MIC [5, 28]: 100 µg/mL; MIC (Fusarium oxysporum (Fo); [29]): 100 µg/mL; MIC ([6]; pH 5.5, read-out: Minimum Inhibitory Concentration, Ap): 50 µg/mL; MIC (Escherichia coli (Ec); [23]): 500 µg/mL"
